The experiment has as its target T1, hM5 receptor (Homo sapiens, UniProt P08912).
T1 construct: expressed in transfected cells; host or cells: CHO cells (Levey et al., 1991)
T1 sequence (P08912 1-532): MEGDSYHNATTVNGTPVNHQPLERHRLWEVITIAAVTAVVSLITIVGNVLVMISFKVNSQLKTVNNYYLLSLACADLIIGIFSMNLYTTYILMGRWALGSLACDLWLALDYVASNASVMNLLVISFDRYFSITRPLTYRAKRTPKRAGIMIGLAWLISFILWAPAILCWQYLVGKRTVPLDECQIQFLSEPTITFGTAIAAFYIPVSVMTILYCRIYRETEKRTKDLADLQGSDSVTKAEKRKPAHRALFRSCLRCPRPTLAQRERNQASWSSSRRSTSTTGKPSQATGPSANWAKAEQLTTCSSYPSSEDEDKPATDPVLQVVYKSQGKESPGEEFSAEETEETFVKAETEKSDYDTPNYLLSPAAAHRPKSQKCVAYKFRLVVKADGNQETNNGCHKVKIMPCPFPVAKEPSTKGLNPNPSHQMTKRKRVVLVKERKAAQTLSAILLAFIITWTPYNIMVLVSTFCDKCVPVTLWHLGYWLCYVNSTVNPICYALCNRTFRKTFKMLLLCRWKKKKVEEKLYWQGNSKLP
Put plainly: Calcium mobilization assay, CHO cells stably expressing hM5. The format is cell-based. From the text: Chinese hamster ovary (CHO-K1) cells stably expressing rat (r)M1 were purchased from the American Type Culture Collection and cultured according to their indicated protocol. CHO cells stably expressing human (h)M2, hM3, and hM5 were described previously (Levey et al., 1991); hM1 and hM4 cDNAs were purchased from Missouri S&T cDNA Resource; rM4 cDNA was provided by T. I. Bonner (National Institutes of Health, Bethesda, Md.). hM1, hM4, and rM4 cDNAs were used to stably transfect CHO-K1 cells purchased from the American Type Culture Collection using Lipofectamine2000. […]
For low throughput measurement of agonist-evoked increases in intracellular calcium, CHO-K1 cells stably expressing muscarinic receptors were plated in 100 μL of growth medium at 5×10^4 (rM1, hM3, and hM5) or 6×10^4 cells per well (rM1 Y381A, hM2, and rM4) in Costar 96-well black-walled, tissue culture (TC)-treated, clear-bottom plates (Fisher). […] For calcium fluorescence measurements, CRCs of compounds (50 μl, 2×) were added 19 s after the beginning of data collection via a Flexstation II (Molecular Devices, Sunnyvale, Calif.). Fluorescence imaging continued for a total of 130 s acquisition time using an excitation wavelength of 488 nm, an emission wavelength of 525 nm, and a cutoff wavelength of 515 nm. […]
(A change in cytosolic calcium serves as a functional read-out for many receptors and channels.)

One may read the EC50 as the concentration giving half of the maximal effect.

In the case of `CCOC(=O)N1[C@@H]2CC[C@H]1C[C@H](NCCNC(=O)c1ccccc1)C2` [Example 26, ethyl 3-((3-exo)-(2-benzamidoethyl)amino)-8-azabicyclo[3.2.1]octane-8-carboxylate], the EC50 is greater than 10 µM.
With `CCOC(=O)N1[C@@H]2CC[C@H]1C[C@@H](NCCNC(=O)c1ccccc1)C2` [Example 27, ethyl 3-((3-endo)-(2-benzamidoethyl)amino)-8-azabicyclo[3.2.1]octane-8-carboxylate], the EC50 is roughly 10 µM.

Values taken from patent US8697691B2, “Alkyl 3-((2-amidoethyl)amino)-8-azabicyclo[3.2.1]octane-8-carboxylate analogs as selective M1 agonists and methods of making and using same” (Vanderbilt University, priority 2009, dated 2014).
